Laboratory results: patent publication US6358885B1, “Substituted phenylheterocyclic herbicides” (Mississippi State University, priority 1992, dated 2002)

Tests used:
rape = test: Test B preemergence/postemergence greenhouse plant response rating 0 to 10; format: in vivo, Brassica napus; conditions: 0 to 10 scale
Procedure, shortened: (§1)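 Both application timings were run together: seeds got compound preemergence, and established seedlings (two to eighteen cm) got it postemergence. Non-phytotoxic solvent carried the chemical. Ratings are visual, versus controls, at twelve to sixteen days.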

chickweed = test: as above; format: in vivo, Stellaria media; conditions: 0 to 10 scale
Procedure, shortened: as §1

downy brome = test: Test C preemergence/postemergence greenhouse plant response rating 0 to 100; format: in vivo, Bromus tectorum; conditions: POSTEMERGENCE; for Plant response rating Downy Brome: 0 to 100 scale
Procedure, shortened: (§2)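 Compounds in non-phytotoxic solvent went onto sandy loam before emergence (seeded one day earlier) or onto plants at the one-to-four leaf stage. Duck salad was treated via flood water (~2.5 cm, maintained) over silt loam.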

wild buckwheat = test: Test B preemergence/postemergence greenhouse plant response rating 0 to 10; format: in vivo, Polygonum convolvulus; conditions: 0 to 10 scale
Procedure, shortened: as §1

sugar beet = test: Test C preemergence/postemergence greenhouse plant response rating 0 to 100; format: in vivo, Beta vulgaris; conditions: POSTEMERGENCE; for Plant response rating, Sugar beet: 0 to 100 scale
Procedure, shortened: as §2

crabgrass = test: as above; format: in vivo, Digitaria sanguinalis; conditions: POSTEMERGENCE; for Plant response rating, Crabgrass: 0 to 100 scale
Procedure, shortened: as §2

bedstraw = test: as above; format: in vivo, Galium aparine; conditions: POSTEMERGENCE; for Plant response rating, Bedstraw: 0 to 100 scale
Procedure, shortened: as §2

umbrella sedge = test: Test C flood test plant response rating 0 to 100; format: in vivo, Cyperus difformis; conditions: for Plant response rating Umbrella sedge: flood test species listed under POSTEMERGENCE, 0 to 100 scale
Procedure, shortened: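 Compounds in non-phytotoxic solvent applied preemergence to sandy loam one day after planting, postemergence at the 1–4 leaf stage, or to ~2.5 cm floodwater over silt loam.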

wild oat = test: Test C preemergence/postemergence greenhouse plant response rating 0 to 100; format: in vivo, Avena fatua; conditions: POSTEMERGENCE; for Plant response rating, Wild oat: 0 to 100 scale
Procedure, shortened: as §2

ryegrass = test: as above; format: in vivo, Lolium multiflorum; conditions: POSTEMERGENCE; for Plant response rating Ryegrass: 0 to 100 scale
Procedure, shortened: as §2

barnyardgrass = test: Test B preemergence/postemergence greenhouse plant response rating 0 to 10; format: in vivo, Echinochloa crus-galli; conditions: 0 to 10 scale
Procedure, shortened: as §1

corn = test: Test C preemergence/postemergence greenhouse plant response rating 0 to 100; format: in vivo, Zea mays; conditions: POSTEMERGENCE; for Plant response rating, Corn: 0 to 100 scale
Procedure, shortened: as §2

## CC(C)OC(=O)c1cc(-c2nn3c(c2Cl)CCCC3)c(F)cc1Cl [Compound 44]
rape; POSTEMERGENCE, Rate 50 g/ha
  Plant response rating, Rape: 9
rape; PREEMERGENCE, Rate 50 g/ha
  Plant response rating, Rape: 2
rape; Rate 200 g/ha, POSTEMERGENCE
  Plant response rating, Rape: 10
rape; Rate 200 g/ha, PREEMERGENCE
  Plant response rating, Rape: 8
chickweed; POSTEMERGENCE, Rate 200 g/ha
  Plant response rating, Chickweed: 10
chickweed; PREEMERGENCE, Rate 50 g/ha
  Plant response rating, Chickweed: 9
chickweed; Rate 200 g/ha, PREEMERGENCE
  Plant response rating, Chickweed: 9
Downy brome; 62 g/ha
  Plant response rating Downy Brome: 50
Downy brome; 250 g/ha
  Plant response rating Downy Brome: 90
Downy brome; Rate 4 g/ha
  Plant response rating (0 to 100), Downy Brome: 20
Downy brome; Rate 16 g/ha
  Plant response rating (0 to 100), Downy Brome: 40
Wild buckwheat; POSTEMERGENCE, Rate 50 g/ha
  Plant response rating, Wild buckwheat: 10
Wild buckwheat; PREEMERGENCE, Rate 50 g/ha
  Plant response rating, Wild buckwheat: 9
Wild buckwheat; Rate 200 g/ha, POSTEMERGENCE
  Plant response rating, Wild buckwheat: 10
Wild buckwheat; Rate 200 g/ha, PREEMERGENCE
  Plant response rating, Wild buckwheat: 9
Sugar beet; 62 g/ha
  Plant response rating, Sugar beet: 100
Sugar beet; 250 g/ha
  Plant response rating, Sugar beet: 100
Sugar beet; Rate 4 g/ha
  Plant response rating (0 to 100), Sugar beet: 80
Sugar beet; Rate 16 g/ha
  Plant response rating (0 to 100), Sugar beet: 100
crabgrass; 62 g/ha
  Plant response rating, Crabgrass: 40
crabgrass; 250 g/ha
  Plant response rating, Crabgrass: 50
crabgrass; Rate 4 g/ha
  Plant response rating (0 to 100), Crabgrass: 20
crabgrass; Rate 16 g/ha
  Plant response rating (0 to 100), Crabgrass: 30
bedstraw; 62 g/ha
  Plant response rating, Bedstraw: 80
bedstraw; 250 g/ha
  Plant response rating, Bedstraw: 100
bedstraw; Rate 4 g/ha
  Plant response rating (0 to 100), Bedstraw: 60
bedstraw; Rate 16 g/ha
  Plant response rating (0 to 100), Bedstraw: 80
Umbrella sedge; POSTEMERGENCE section, flood test, Rate 4 g/ha
  Plant response rating (0 to 100), Umbrella sedge: 30
Umbrella sedge; Rate 16 g/ha, under POSTEMERGENCE head (flood test species)
  Plant response rating (0 to 100), Umbrella sedge: 60
Umbrella sedge; 62 g/ha
  Plant response rating Umbrella sedge: 80
Umbrella sedge; 250 g/ha
  Plant response rating Umbrella sedge: 100
Wild oat; 62 g/ha
  Plant response rating, Wild oat: 50
Wild oat; 250 g/ha
  Plant response rating, Wild oat: 60
Wild oat; Rate 4 g/ha
  Plant response rating (0 to 100), Wild oat: 20
Wild oat; Rate 16 g/ha
  Plant response rating (0 to 100), Wild oat: 30
ryegrass; 62 g/ha
  Plant response rating Ryegrass: 50
ryegrass; 250 g/ha
  Plant response rating Ryegrass: 90
ryegrass; Rate 4 g/ha
  Plant response rating (0 to 100), Ryegrass: 20
ryegrass; Rate 16 g/ha
  Plant response rating (0 to 100), Ryegrass: 30
barnyardgrass; POSTEMERGENCE, Rate 50 g/ha
  Plant response rating, Barnyardgrass: 8
barnyardgrass; POSTEMERGENCE, Rate 200 g/ha
  Plant response rating, Barnyardgrass: 10
barnyardgrass; PREEMERGENCE, Rate 50 g/ha
  Plant response rating, Barnyardgrass: 5
barnyardgrass; Rate 200 g/ha, PREEMERGENCE
  Plant response rating, Barnyardgrass: 8
corn; 62 g/ha
  Plant response rating, Corn: 50
corn; 250 g/ha
  Plant response rating, Corn: 90
corn; Rate 4 g/ha
  Plant response rating (0 to 100), Corn: 30
corn; Rate 16 g/ha
  Plant response rating (0 to 100), Corn: 40
